Patent US9169252B2 (BRISTOL-MYERS SQUIBB COMPANY, priority 2014, dated 2015)
pIC50: −log10 of the molar value.

Legend:
[1] = test system: TLR2 induced IL-6 in peripheral blood mononuclear cells (PBMCs); assay: PBMC TLR2 Induced IL-6 Assay; format: cell-based, human; conditions: Homo sapiens, PBMC, PBMC TLR2 Induced IL-6 Assay; lipoteichoic acid stimulation, IL-6 by ELISA; read-out: Cell IC50
How it was run: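 Lipoteichoic acid at 10 µg/ml served as TLR2 stimulus for 5 hours, following a 30-minute compound pretreatment at 37° C. Cells were Ficoll-isolated human PBMCs, 250000 cells/well, cultured in RPMI plus 10% heat-inactivated FCS.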

IRAK4 = IRAK4 (Homo sapiens (Human), UniProt Q9NWZ3); assay: IRAK4 Inhibition Assay; format: biochemical; conditions: IRAK4 Inhibition Assay; ATP 500 μM; read-out: IRAK4 IC50
How it was run: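 IRAK4 combined with fluorescent substrate and compounds, reacted 60 min at room temperature, stopped with 35 mM EDTA. Substrate and phosphorylated product separated electrophoretically on a Caliper LabChip 3000 mobility-shift reader.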

Chain of IRAK4 (Q9NWZ3 whole entry, species assumed): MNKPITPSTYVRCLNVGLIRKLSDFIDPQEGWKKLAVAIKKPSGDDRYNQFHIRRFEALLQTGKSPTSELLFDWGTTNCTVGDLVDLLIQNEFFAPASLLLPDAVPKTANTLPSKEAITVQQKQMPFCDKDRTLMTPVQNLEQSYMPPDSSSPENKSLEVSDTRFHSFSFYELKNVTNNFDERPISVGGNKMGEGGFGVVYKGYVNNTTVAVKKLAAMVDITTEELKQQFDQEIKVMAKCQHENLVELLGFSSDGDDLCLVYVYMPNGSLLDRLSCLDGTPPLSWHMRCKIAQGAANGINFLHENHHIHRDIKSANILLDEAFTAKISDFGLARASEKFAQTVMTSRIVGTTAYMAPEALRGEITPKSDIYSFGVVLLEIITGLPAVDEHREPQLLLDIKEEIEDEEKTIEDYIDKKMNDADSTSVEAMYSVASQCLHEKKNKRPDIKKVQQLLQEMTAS

pIC50 (IRAK4) | SMILES | pIC50 [1]
8.55 | CC[C@@H](C)Nc1cc(-n2ncc3cc(C#N)cnc32)ncc1C(=O)NC[C@@H](F)C(C)(C)O [Example 283] | 6.87
8.00 | CC(C)Nc1cc(-n2ncc3cc(C#N)cnc32)ncc1C(=O)Nc1cnn(CC(F)F)c1 [Example 285] | 6.70
8.33 | CC[C@H](C)Nc1cc(-n2ncc3cc(C#N)cnc32)ncc1C(=O)NC[C@@H](F)C(C)(C)O [Example 289] | 6.56
8.46 | COC1CCC(O)(CCNC(=O)c2cnc(-n3ncc4cc(C#N)cnc43)cc2NC(C)C)CC1 (centres unmarked) [Example 291] | 6.46
7.87 | CC(C)Nc1cc(-n2ncc3cc(C#N)cnc32)ncc1C(=O)NCC(F)=C1CCOCC1 [Example 294] | 6.53
8.15 | CC(C)Nc1cc(-n2ncc3cc(C#N)cnc32)ncc1C(=O)N[C@@H]1CC[C@@H](C(C)(C)O)OC1 [Example 296] | 6.39
8.35 | CC(C)CCNC(=O)c1cnc(-n2ncc3cc(C#N)cnc32)cc1NC(C)C [Example 298] | 6.85
8.39 | CC(C)Nc1cc(-n2ncc3cc(C#N)cnc32)ncc1C(=O)NCCC1CC1 [Example 302] | 6.83
8.46 | CC(C)CCNC(=O)c1cnc(-n2ncc3cc(C#N)c(N)nc32)cc1NC(C)C [Example 303] | 6.75
7.97 | CC(C)Nc1cc(-n2ncc3cc(C#N)cnc32)ncc1C(=O)Nc1cnn(CC(C)(C)O)c1 [Example 304] | 6.39
8.32 | CC(C)Nc1cc(-n2ncc3cc(C#N)cnc32)ncc1C(=O)NCCC(C)(C)NS(C)(=O)=O [Example 306] | 6.10
8.52 | CC(C)Nc1cc(-n2ncc3cc(C#N)cnc32)ncc1C(=O)NC[C@@H](F)C(C)(C)F [Example 308] | 7.14
7.74 | CC(C)Nc1cc(-n2ncc3cc(C#N)cnc32)ncc1C(=O)NC1CCN(S(=O)(=O)NC(C)C)CC1 [Example 309] | 6.68
8.35 | CC(C)Nc1cc(-n2ncc3cc(C#N)cnc32)ncc1C(=O)NCCC1CCOCC1 [Example 310] | 7.64
8.33 | CC(C)Nc1cc(-n2ncc3cc(C#N)cnc32)ncc1C(=O)NCCc1c[nH]cn1 [Example 311] | 6.46
8.04 | CC(C)Nc1cc(-n2ncc3cc(C#N)cnc32)ncc1C(=O)NC[C@@H](F)C(C)C [Example 312] | 6.43
7.86 | CC(C)Nc1cc(-n2ncc3cc(C#N)cnc32)ncc1C(=O)NC[C@@H](F)C(C)(C)OC(F)F [Example 314] | 6.38
7.97 | CC(C)Nc1cc(-n2ncc3cc(C#N)cnc32)ncc1C(=O)NC[C@@H](F)C(O)(C1CC1)C1CC1 [Example 315] | 6.57
8.10 | C[C@@H](CO)Nc1cc(-n2ncc3cc(C#N)cnc32)ncc1C(=O)NCCC1CC1 [Example 318] | 6.73
8.19 | CCCCNC(=O)c1cnc(-n2ncc3cc(C#N)cnc32)cc1N[C@@H](C)CO [Example 319] | 6.72
8.25 | CC(C)CCNC(=O)c1cnc(-n2ncc3cc(C#N)cnc32)cc1N[C@@H](C)CO [Example 320] | 6.58
7.94 | CCCNC(=O)c1cnc(-n2ncc3cc(C#N)c(N)nc32)cc1NC(C)C [Example 326] | 7.52
8.31 | CC(C)Nc1cc(-n2ncc3cc(C#N)cnc32)ncc1C(=O)NCC(F)C1CCOCC1 (centres unmarked) [Example 329] | 7.12
8.37 | CC(C)Nc1cc(-n2ncc3cc(Cl)cnc32)ncc1C(=O)NC[C@@H](F)C(C)(C)F [Example 330] | 6.29
8.21 | CC(C)Nc1cc(-n2ncc3cc(C#N)cnc32)ncc1C(=O)NCCC1(O)CC1 [Example 331] | 7.24
7.89 | CC(C)Nc1cc(-n2ncc3cc(C#N)cnc32)ncc1C(=O)NCCC(C)(F)F [Example 332] | 6.80

The remaining lines, values behind:

SMILES | pIC50 (IRAK4) | pIC50 [1]
CC(C)Nc1cc(-n2ncc3cc(C#N)cnc32)ncc1C(=O)Nc1cnn(C2CN(S(C)(=O)=O)C2)c1 [Example 281] | 8.11 | 6.59
CC(C)(C)Nc1cc(-n2ncc3cc(C#N)cnc32)ncc1C(=O)NC[C@@H](F)C(C)(C)O [Example 286] | 8.77 | 6.80
CCS(=O)(=O)N1CCC(NC(=O)c2cnc(-n3ncc4cc(C#N)cnc43)cc2NC(C)C)CC1 [Example 290] | 8.23 | 6.44
CC1(Nc2cc(-n3ncc4cc(C#N)cnc43)ncc2C(=O)NC[C@@H](F)C(C)(C)O)CC1 [Example 292] | 8.57 | 6.34
CC(C)(C)Nc1cc(-n2ncc3cc(C#N)c(N)nc32)ncc1C(=O)NC[C@@H](F)C(C)(C)O [Example 293] | 9.00 | 7.49
CC(C)Nc1cc(-n2ncc3cc(C#N)c(N)nc32)ncc1C(=O)NC[C@@H](F)C(C)(C)F [Example 295] | 8.72 | 6.62
CC(C)Nc1cc(-n2ncc3cc(C#N)c(N)nc32)ncc1C(=O)NCCC1CC1 [Example 299] | 8.20 | 6.60
CC[C@@H](C)Nc1cc(-n2ncc3cc(C#N)c(N)nc32)ncc1C(=O)NC[C@@H](F)C(C)(C)O [Example 300] | 8.80 | 7.08
CC(Nc1cc(-n2ncc3cc(C#N)c(N)nc32)ncc1C(=O)NC[C@@H](F)C(C)(C)O)C(F)(F)F (some centres unmarked) [Example 301] | 8.62 | 7.20
CNC(=O)c1cnc(-n2ncc3cc(C#N)c(N)nc32)cc1NC(C)C [Example 305] | 8.04 | 6.68
CC(C)Nc1cc(-n2ncc3cc(C#N)c(N)nc32)ncc1C(=O)NCCC(C)(C)F [Example 307] | 8.70 | 6.90
CNS(=O)(=O)N1CCC(NC(=O)c2cnc(-n3ncc4cc(C#N)cnc43)cc2NC(C)C)CC1 [Example 313] | 7.83 | 6.54
CC(=O)N[C@H]1CC[C@H](NC(=O)c2cnc(-n3ncc4cc(C#N)c(N)nc43)cc2NC(C)C)CC1 [Example 317] | 8.42 | 6.76
COC(C)(C)[C@H](F)CNC(=O)c1cnc(-n2ncc3cc(C#N)c(N)nc32)cc1NC(C)C [Example 321] | 8.51 | 7.28
CC(C)Nc1cc(-n2ncc3cc(C#N)c(N)nc32)ncc1C(=O)NC1(C)CC1 [Example 322] | 8.17 | 6.80
CC(C)Nc1cc(-n2ncc3cc(C#N)c(N)nc32)ncc1C(=O)N[C@H](C)C1CC1 [Example 323] | 7.76 | 6.21
CC(C)Nc1cc(-n2ncc3cc(C#N)c(N)nc32)ncc1C(=O)NC1CCCCC1 [Example 324] | 8.18 | 6.56
CC(C)Nc1cc(-n2ncc3cc(C#N)c(N)nc32)ncc1C(=O)NC1(C#N)CC1 [Example 325] | 8.22 | 6.64
CC(C)Nc1cc(-n2ncc3cc(C#N)c(N)nc32)ncc1C(=O)NC1C=CCC1 (centres unmarked) [Example 327] | 7.95 | 6.74
CC(C)Nc1cc(-n2ncc3cc(C#N)c(N)nc32)ncc1C(=O)NC[C@@H](C)F [Example 328] | 8.00 | 7.96
